From US11780830B2, “Triazolone derivatives or salts thereof and pharmaceutical compositions comprising the same” (YUHAN CORPORATION, priority 2018, dated 2023)

Experiments:
Type in all cases: biochemical
[1] = target: T1, recombinant human DAO (diamine oxidase) (Homo sapiens, UniProt P19801); test: Activity on recombinant human DAO, method similar to the VAP-1 assay; settings: substrate 1 mM putrescine; read-out: Inhibitory Activity (IC50, nM) DAO
T1 construct: purchased R&D systems
T1 sequence (P19801 20-751): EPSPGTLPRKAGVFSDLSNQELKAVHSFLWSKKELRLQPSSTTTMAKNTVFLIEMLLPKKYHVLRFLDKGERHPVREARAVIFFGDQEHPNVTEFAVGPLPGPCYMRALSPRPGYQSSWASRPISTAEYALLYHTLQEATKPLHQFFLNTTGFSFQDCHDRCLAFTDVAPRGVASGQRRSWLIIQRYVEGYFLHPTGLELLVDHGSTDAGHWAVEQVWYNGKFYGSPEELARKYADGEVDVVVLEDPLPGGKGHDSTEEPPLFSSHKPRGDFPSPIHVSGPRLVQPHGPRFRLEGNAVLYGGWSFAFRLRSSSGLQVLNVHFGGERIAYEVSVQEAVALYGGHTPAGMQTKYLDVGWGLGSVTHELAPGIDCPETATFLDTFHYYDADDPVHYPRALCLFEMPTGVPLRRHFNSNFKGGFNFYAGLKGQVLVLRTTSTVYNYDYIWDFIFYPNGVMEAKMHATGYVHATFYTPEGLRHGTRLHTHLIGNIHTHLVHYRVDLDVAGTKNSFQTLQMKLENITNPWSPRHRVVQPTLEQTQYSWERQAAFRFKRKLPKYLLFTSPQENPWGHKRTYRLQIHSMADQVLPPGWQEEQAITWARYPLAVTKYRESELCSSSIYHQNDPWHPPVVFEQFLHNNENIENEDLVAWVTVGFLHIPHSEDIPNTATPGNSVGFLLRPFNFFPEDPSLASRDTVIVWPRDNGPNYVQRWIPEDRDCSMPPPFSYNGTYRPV
In short: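 Inhibition of recombinant human diamine oxidase (DAO, R&D systems) was assessed by the same approach as the VAP-1 assay, using 1 mM putrescine as substrate. Hydrogen peroxide formed was detected through an HRP-coupled Amplex Red reaction yielding fluorescent resorufin, read at 544 nm excitation and 590 nm emission. IC50 values came from four-parameter logistic fitting in GraphPad Prism.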

recombinant human VAP-1 = target: T2, recombinant human VAP-1 (Homo sapiens, UniProt Q16853); test: Activity on recombinant human VAP-1, HRP-coupled Amplex Red hydrogen peroxide assay; settings: substrate 1 mM benzylamine; compound incubated with enzyme at 37° C. for 30 minutes; pH 7.4; read-out: Inhibitory Activity (IC50, nM) human VAP-1
T2 construct: purchased R&D systems
T2 sequence (Q16853 1-763): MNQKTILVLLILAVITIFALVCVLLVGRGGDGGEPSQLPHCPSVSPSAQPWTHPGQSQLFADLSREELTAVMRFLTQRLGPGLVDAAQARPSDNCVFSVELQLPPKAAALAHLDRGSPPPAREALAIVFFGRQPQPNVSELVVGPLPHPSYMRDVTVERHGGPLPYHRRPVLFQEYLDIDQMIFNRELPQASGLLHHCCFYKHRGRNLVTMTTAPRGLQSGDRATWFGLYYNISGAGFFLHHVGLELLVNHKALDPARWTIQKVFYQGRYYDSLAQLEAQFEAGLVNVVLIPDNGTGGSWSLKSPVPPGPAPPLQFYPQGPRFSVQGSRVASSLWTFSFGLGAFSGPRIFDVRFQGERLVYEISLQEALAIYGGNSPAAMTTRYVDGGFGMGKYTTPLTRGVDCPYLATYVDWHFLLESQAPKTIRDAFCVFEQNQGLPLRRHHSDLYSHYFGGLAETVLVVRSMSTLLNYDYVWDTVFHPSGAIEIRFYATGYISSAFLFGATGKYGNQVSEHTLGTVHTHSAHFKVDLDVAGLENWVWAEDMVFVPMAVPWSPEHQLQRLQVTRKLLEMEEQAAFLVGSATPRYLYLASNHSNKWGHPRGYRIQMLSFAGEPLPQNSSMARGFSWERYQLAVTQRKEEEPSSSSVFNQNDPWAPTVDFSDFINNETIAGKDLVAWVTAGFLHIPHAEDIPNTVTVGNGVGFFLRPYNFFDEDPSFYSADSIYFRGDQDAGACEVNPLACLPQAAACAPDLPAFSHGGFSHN
In short: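 Enzyme in 50 mM sodium phosphate pH 7.4 preincubated with compound 30 min at 37 °C, then 1 mM benzylamine, 200 µM Amplex Red and 1 U/mL HRP added. H2O2-derived resorufin fluorescence (ex 544/em 590 nm) followed over 1–2 h; signal-rate decrease versus DMSO control, 8-point curve, four-parameter logistic IC50.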

[2] = target: T3, recombinant human MAO-A (monoamine oxidase-A) (Homo sapiens, UniProt P21397); test: Activity on recombinant human MAO-A, method similar to the VAP-1 assay; settings: substrate 0.5 mM tyramine; read-out: Inhibitory Activity (IC50, nM) MAO-A
T3 construct: purchased Sigma-Aldrich
T3 sequence (P21397 1-527): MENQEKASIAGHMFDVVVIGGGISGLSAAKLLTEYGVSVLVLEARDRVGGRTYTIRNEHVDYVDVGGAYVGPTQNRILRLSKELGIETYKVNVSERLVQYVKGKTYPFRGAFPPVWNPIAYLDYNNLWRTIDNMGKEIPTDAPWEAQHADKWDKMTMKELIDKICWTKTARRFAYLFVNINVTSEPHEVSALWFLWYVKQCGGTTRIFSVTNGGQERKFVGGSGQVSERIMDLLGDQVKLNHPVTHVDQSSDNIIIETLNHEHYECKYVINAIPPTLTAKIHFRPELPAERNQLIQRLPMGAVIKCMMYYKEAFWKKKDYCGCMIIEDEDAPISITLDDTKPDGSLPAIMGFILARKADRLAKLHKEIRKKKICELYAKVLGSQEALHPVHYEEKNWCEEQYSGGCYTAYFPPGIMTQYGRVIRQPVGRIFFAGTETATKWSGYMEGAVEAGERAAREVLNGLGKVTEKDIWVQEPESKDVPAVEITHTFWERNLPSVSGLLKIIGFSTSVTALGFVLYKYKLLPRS
In short: (§1)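 Enzyme preincubated with compound 30 min at 37 °C in 50 mM sodium phosphate pH 7.4, final DMSO below 1%. Substrate was 0.5 mM tyramine for MAO-A and 1 mM benzylamine for MAO-B, with 200 uM Amplex Red and 1 U/mL HRP. H2O2-coupled resorufin fluorescence (ex 544/em 590) followed over 1–2 h; 8-point 4-parameter IC50.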

[3] = target: T4, recombinant human MAO-B (monoamine oxidase-B) (Homo sapiens, UniProt P27338); test: Activity on recombinant human MAO-B, method similar to the VAP-1 assay; settings: substrate 1 mM benzylamine; read-out: Inhibitory Activity (IC50, nM) MAO-B
T4 construct: purchased Sigma-Aldrich
T4 sequence (P27338 1-520): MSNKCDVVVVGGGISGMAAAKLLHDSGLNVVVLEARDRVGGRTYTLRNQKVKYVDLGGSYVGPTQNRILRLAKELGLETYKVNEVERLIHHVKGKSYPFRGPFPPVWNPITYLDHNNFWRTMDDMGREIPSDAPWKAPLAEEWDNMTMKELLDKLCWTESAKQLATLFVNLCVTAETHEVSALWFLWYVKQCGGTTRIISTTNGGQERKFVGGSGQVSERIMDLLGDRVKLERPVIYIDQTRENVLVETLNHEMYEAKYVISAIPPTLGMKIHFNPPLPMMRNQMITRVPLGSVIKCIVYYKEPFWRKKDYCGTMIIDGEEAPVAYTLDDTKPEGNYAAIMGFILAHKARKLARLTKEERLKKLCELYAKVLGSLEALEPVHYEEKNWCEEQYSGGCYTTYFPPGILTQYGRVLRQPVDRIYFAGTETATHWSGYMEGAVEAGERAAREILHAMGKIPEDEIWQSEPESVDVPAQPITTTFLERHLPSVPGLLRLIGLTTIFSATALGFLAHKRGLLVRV
In short: as §1

Row | SMILES | IC50 [1] [nM] | IC50 (recombinant human VAP-1) [nM] | IC50 [2] [nM] | IC50 [3] [nM]
1 | CC(C)n1cc(-c2ccc(Cn3cnn(C/C(=C/F)CN)c3=O)s2)ccc1=O [Example 143, 5-[5-({1-[(2E)-2-(aminomethyl)-3-fluoroprop-2-en-1-yl]-5-oxo-1,5-dihydro-4H-1,2,4-triazol-4-yl}methyl)thiophen-2-yl]-1-(propan-2-yl)pyridin-2(1H)-one] | 1700 | 1.4 | > 100000 | 2600
2 | NC/C(=C\F)Cn1ncn(Cc2ccc(-c3ccc(-c4noc(=O)[nH]4)cc3)s2)c1=O [Example 144, 3-{4-[5-({1-[(2E)-2-(aminomethyl)-3-fluoroprop-2-en-1-yl]-5-oxo-1,5-dihydro-4H-1,2,4-triazol-4-yl}methyl)thiophen-2-yl]phenyl}-1,2,4-oxadiazol-5(4H)-one] | 7400 | 4.6 | > 100000 | 13000
3 | NC/C(=C\F)Cn1ncn(Cc2ccc(-c3ccc(CN4CCOCC4)nc3)s2)c1=O [Example 145, 2-[(2E)-2-(aminomethyl)-3-fluoroprop-2-en-1-yl]-4-({5-[6-(morpholin-4-ylmethyl)pyridin-3-yl]thiophen-2-yl}methyl)-2,4-dihydro-3H-1,2,4-triazol-3-one] | 490 | 4.4 | > 100000 | > 100000
4 | NC/C(=C\F)Cn1ncn(Cc2ccc(-c3cc4c(cc3F)NC(=O)CC4)s2)c1=O [Example 146, 6-[5-({1-[(2E)-2-(aminomethyl)-3-fluoroprop-2-en-1-yl]-5-oxo-1,5-dihydro-4H-1,2,4-triazol-4-yl}methyl)thiophen-2-yl]-7-fluoro-3,4-dihydroquinolin-2(1H)-one] | 1300 | 0.4 | > 100000 | 3900
5 | CN1Cc2cc(-c3ccc(Cn4cnn(C/C(=C/F)CN)c4=O)s3)ccc2NC1=O [Example 147, 6-[5-({1-[(2E)-2-(aminomethyl)-3-fluoroprop-2-en-1-yl]-5-oxo-1,5-dihydro-4H-1,2,4-triazol-4-yl}methyl)thiophen-2-yl]-3-methyl-3,4-dihydroquinazolin-2(1H)-one] | 1000 | 0.3 | > 100000 | 6700
6 | NC/C(=C\F)Cn1ncn(Cc2ccc(-c3cnc4c(c3)CCC(=O)N4)s2)c1=O [Example 148, 6-[5-({1-[(2E)-2-(aminomethyl)-3-fluoroprop-2-en-1-yl]-5-oxo-1,5-dihydro-4H-1,2,4-triazol-4-yl}methyl)thiophen-2-yl]-3,4-dihydro-1,8-naphthyridin-2(1H)-one] | 420 | 0.4 | > 100000 | 24000
7 | NC/C(=C\F)Cn1ncn(Cc2ccc(-c3cnc4c(c3)COC(=O)N4)s2)c1=O [Example 149, 6-[5-({1-[(2E)-2-(aminomethyl)-3-fluoroprop-2-en-1-yl]-5-oxo-1,5-dihydro-4H-1,2,4-triazol-4-yl}methyl)thiophen-2-yl]-1,4-dihydro-2H-pyrido[2,3-d][1,3]oxazin-2-one] | 470 | 0.4 | > 100000 | 4500
8 | CN1C(=O)COc2ncc(-c3ccc(Cn4cnn(C/C(=C/F)CN)c4=O)s3)cc21 [Example 150, 7-[5-({1-[(2E)-2-(aminomethyl)-3-fluoroprop-2-en-1-yl]-5-oxo-1,5-dihydro-4H-1,2,4-triazol-4-yl}methyl)thiophen-2-yl]-1-methyl-1H-pyrido[2,3-b][1,4]oxazin-2(3H)-one] | 190 | 0.8 | > 100000 | 26000
9 | NC/C(=C\F)Cn1ncn(Cc2ccc(-c3cnn(Cc4ccccc4)c3)s2)c1=O [Example 151, 2-[(2E)-2-(aminomethyl)-3-fluoroprop-2-en-1-yl]-4-{[5-(1-benzyl-1H-pyrazol-4-yl)thiophen-2-yl]methyl}-2,4-dihydro-3H-1,2,4-triazol-3-one] | 790 | 2.7 | 59000 | 1500
10 | NC/C(=C\F)Cn1ncn(Cc2ccc(-c3cn[nH]c3)s2)c1=O [Example 152, 2-[(2E)-2-(aminomethyl)-3-fluoroprop-2-en-1-yl]-4-{[5-(1H-pyrazol-4-yl)thiophen-2-yl]methyl}-2,4-dihydro-3H-1,2,4-triazol-3-one] | 4400 | 4.9 | 13000 | 3500
11 | CCn1cc(-c2ccc(Cn3cnn(C/C(=C/F)CN)c3=O)s2)cn1 [Example 153, 2-[(2E)-2-(aminomethyl)-3-fluoroprop-2-en-1-yl]-4-{[5-(1-ethyl-1H-pyrazol-4-yl)thiophen-2-yl]methyl}-2,4-dihydro-3H-1,2,4-triazol-3-one] | 4700 | 1.3 | > 100000 | 1900
12 | Cn1c(-c2ccc(Cn3cnn(C/C(=C/F)CN)c3=O)s2)cnc1Cl [Example 154, 2-[(2E)-2-(aminomethyl)-3-fluoroprop-2-en-1-yl]-4-{[5-(2-chloro-1-methyl-1H-imidazol-5-yl)thiophen-2-yl]methyl}-2,4-dihydro-3H-1,2,4-triazol-3-one] | 690 | 4.4 | > 100000 | 1400
